Source: patent US20200109126A1 (priority 2017, published 2020)

Assays:
μOR [1] = molecular target: T1, μOR (Homo sapiens, UniProt P35372); experiment: Calcium release (FLIPR); assay type: cell-based; set-up: expressed in transfected cells
Experimental: Calcium release was measured using a FLIPR^TETRA fluorescence imaging plate reader (Molecular Devices). Calcium release experiments were run in parallel to Gi/o Glosensor experiments with the same HEKT cells transfected with μOR, except cells for FLIPR were plated in poly-lysine coated 384-well black clear bottom cell culture plates. Cells were incubated at 37° C. with 5% CO2 overnight, and next day, media was decanted and replaced with Fluo-4 direct calcium dye (Life Technologies) made up in HBSS with 20 mM HEPES, pH 7.4. Dye was incubated for 1 hour at 37° C. Afterwards, cells were equilibrated to room temperature, and fluorescence in each well was read for the initial 10 seconds to establish a baseline. Afterwards, 10 μL of drug (3×) was added per well and the maximum-fold increase in fluorescence was determined as fold-over-baseline. Drug solutions used for the FLIPR assay were exactly the same as used for Gi/o Glosensor experiments. To activate endogenous Gq-coupled receptors as a positive control for calcium release, TFLLR-NH2 (10 μM, PAR-1 selective agonist) was used.

hERG ion channel = hERG ion channel (Homo sapiens, UniProt Q12809); experiment: Inhibition of hERG channel; assay type: biochemical
hERG ion channel, sequence (Q12809 whole entry): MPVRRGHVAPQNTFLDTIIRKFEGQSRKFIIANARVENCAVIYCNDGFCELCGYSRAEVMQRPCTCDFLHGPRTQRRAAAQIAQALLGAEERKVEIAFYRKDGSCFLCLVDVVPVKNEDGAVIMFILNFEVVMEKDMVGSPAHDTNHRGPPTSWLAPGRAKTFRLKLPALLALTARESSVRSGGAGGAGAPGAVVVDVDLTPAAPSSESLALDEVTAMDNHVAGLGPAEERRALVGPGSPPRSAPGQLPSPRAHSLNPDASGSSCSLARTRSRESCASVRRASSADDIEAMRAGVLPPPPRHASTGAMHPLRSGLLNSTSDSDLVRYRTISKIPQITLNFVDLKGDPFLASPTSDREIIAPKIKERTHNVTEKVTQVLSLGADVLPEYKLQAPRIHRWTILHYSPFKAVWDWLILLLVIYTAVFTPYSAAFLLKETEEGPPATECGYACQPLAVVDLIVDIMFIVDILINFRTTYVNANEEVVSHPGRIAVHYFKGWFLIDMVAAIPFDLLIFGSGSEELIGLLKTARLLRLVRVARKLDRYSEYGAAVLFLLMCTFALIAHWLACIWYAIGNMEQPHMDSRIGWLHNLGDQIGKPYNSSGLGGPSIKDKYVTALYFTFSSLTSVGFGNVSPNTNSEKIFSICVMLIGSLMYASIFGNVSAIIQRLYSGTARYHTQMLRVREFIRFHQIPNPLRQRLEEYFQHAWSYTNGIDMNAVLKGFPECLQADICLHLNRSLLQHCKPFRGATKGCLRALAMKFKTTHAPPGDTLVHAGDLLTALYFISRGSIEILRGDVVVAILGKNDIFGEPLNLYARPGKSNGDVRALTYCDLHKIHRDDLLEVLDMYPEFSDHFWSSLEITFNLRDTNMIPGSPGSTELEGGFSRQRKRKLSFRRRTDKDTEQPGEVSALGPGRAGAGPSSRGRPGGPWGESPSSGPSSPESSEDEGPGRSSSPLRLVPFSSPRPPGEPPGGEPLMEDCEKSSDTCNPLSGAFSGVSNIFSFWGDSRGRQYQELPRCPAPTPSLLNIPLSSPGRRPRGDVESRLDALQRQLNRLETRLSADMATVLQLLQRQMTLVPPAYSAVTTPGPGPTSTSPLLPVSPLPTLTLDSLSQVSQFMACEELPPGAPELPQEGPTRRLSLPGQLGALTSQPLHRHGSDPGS

μOR [2] = molecular target: T1, μOR; experiment: β-arrestin recruitment at μOR without GRK2; assay type: cell-based
C57BL/6J mice = experiment: Formalin injection assay; settings: PZM21 40 mg/kg
Experimental: Analgesia to formalin injection was carried out as described previously^66. Mice were first habituated for 20 minutes to the testing environment which included a home cage without bedding, food, and water. […] This was followed by injection of 20 μL of 1% formalin in 0.9% saline under the skin of the dorsal surface of the right hindpaw. Animals were returned to their home cage and behavioral responses were recorded for one hour. Nociception was estimated by measuring the cumulative time spent by animals licking the formalin-injected paw. As opioids classically display two phases of analgesic action, nociceptive behavior was measured during both the early phase (0 to 5 minutes) and the late phase (20 to 30 minutes).

δOR = molecular target: T2, δOR (Homo sapiens, UniProt P41143); experiment: Gi/o Glosensor assay at δOR; assay type: cell-based; settings: ND = not detectable
T2 construct: NIMH Psychoactive Drug Screening Program (PDSP)
T2 sequence (P41143 whole entry): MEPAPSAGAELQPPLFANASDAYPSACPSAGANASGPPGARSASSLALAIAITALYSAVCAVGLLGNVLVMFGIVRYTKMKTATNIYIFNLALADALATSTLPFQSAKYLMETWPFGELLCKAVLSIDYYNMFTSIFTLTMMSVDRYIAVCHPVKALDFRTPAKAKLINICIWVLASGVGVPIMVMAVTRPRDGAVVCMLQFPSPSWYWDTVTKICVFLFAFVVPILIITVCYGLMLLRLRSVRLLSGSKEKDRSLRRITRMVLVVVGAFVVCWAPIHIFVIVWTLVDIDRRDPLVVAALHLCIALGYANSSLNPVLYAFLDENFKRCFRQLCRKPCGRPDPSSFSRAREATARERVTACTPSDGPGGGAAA

[3] = Metabolism by mouse liver microsomes; assay type: in vitro ADME; settings: over one hour
Experimental: Metabolism experiments were performed as described previously. In brief, pooled microsomes from male mouse liver (CD-1) were purchased (Sigma Aldrich) and stored at −75° C. until required. NADPH was purchased (Carl Roth) and stored at −8° C. The incubation reactions were carried out in polyethylene caps (Eppendorf, 1.5 mL) at 37° C. […] The final incubation volume was 0.5 mL. Microsomal reactions were initiated by addition of 50 μL of enzyme cofactor solution NADPH (final concentration of 1 mM). At 0, 15, 30 and 60 min the enzymatic reactions were terminated by addition of 500 μL of ice-cold acetonitrile (containing 8 μM internal standard), and precipitated protein was removed by centrifugation (15,000 rcf for 3 min). The supernatant was analyzed by HPLC/MS (binary solvent system, eluent acetonitrile in 0.1% aqueous formic acid, 10-40% acetonitrile in 8 min, 40-95% acetonitrile in 1 min, 95% acetonitrile for 1 min, flow rate of 0.3 mL/min). The experiments were repeated in three independent experiments. […] Substrate remaining and metabolite formation was calculated as a mean value+SEM of three independent experiments by comparing AUC of metabolites and substrate after predetermined incubation time to AUC of substrate at time 0, estimating a similar ionization rate, corrected by a factor calculated from the AUC of internal standard at each time point.

T1 sequence (P35372 whole entry): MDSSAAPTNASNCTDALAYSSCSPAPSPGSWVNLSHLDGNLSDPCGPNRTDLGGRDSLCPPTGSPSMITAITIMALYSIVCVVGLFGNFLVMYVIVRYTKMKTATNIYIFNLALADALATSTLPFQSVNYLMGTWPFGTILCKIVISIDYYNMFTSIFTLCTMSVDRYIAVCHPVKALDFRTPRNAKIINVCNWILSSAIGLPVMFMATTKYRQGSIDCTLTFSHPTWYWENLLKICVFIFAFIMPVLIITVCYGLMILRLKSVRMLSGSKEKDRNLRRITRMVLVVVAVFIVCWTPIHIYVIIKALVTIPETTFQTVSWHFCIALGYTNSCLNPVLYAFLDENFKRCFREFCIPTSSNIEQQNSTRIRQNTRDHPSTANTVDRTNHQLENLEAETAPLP

For `C[C@@H](Cc1ccsc1)NC(=O)NC[C@H](Cc1ccc(O)cc1)N(C)C` [PZM21, 1-[(S)-2-(Dimethylamino)-3-(4-hydroxyphenyl)propyl]-3-((S)-1-(thiophen-3-yl)propan-2-yl)urea], the calcium release (μOR [1]) was “no activity was observed”, the IC50 (hERG ion channel) was 2 to 4 µM and the “Arrestin Emax % DAMGO” value (μOR [2]) was 15 % DAMGO. For the same molecule, the “β-arrestin2 recruitment in the absence of GRK2 (in words)” value (μOR [2]) was “no β-arrestin2 recruitment”, the “activity in formalin injection nociception assay” value (C57BL/6J mice) was “active” and the EC50 (δOR) was 1900 nM. For the same molecule, the “metabolism by mouse liver microsomes” value [3] was 8%.
